Values quoted from earlier work in patent publication US7157490B2, “Phenylalanine derivatives as dipeptidyl peptidase inhibitors for the treatment or prevention of diabetes” (Merck & Co., Inc., priority 2002, dated 2007).
Each block holds one molecule with its values, some of them ahead of it.

Assays:
rats = details: doubled from day 7
[1] = tested on: mouse model of cyclophosphamide-induced neutropenia
DP-IV = target: T1, DP-IV (Homo sapiens, UniProt P27487)
T1 construct: GRF is rapidly degraded in plasma to GRF[3–44]; from tissue
T1 sequence (P27487 39-766 limits assumed): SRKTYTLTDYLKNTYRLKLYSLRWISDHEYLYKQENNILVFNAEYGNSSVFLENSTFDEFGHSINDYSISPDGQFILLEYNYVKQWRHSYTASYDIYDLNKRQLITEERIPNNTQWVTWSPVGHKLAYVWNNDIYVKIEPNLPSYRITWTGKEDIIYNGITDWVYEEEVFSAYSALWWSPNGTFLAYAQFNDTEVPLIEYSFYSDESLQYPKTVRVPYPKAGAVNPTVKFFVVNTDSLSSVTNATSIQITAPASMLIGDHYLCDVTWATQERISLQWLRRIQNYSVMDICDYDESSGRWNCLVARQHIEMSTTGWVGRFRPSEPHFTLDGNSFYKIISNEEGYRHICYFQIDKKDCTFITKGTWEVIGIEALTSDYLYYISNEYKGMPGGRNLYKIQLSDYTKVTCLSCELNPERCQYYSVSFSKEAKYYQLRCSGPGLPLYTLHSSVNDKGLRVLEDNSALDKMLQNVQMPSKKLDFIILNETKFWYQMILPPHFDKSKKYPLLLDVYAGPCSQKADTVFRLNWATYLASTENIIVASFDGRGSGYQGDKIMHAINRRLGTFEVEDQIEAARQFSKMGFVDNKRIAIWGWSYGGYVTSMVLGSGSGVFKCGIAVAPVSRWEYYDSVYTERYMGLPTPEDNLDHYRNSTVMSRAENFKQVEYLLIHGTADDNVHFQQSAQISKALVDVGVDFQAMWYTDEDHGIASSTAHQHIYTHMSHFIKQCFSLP

Molecule: CC(C)N1CCC(c2ccccc2)(c2ccccc2)CC1 [Prodipine, Pro-Pro-diphenyl-phosphonate]
cardiac allograft survival (rats): 14 day

Molecule: CC(C)[C@H](N)C(=O)N1CCC[C@H]1B(O)O [Val-Boro-Pro]
hematopoiesis [1]: stimulated hematopoiesis

degradation of GRF in plasma to GRF[3–44] (DP-IV): prevented
Molecule: diprotin A
